Data as given in US20210183467A1, “SYSTEM AND METHOD FOR USING MICROBIOME TO DE-RISK DRUG DEVELOPMENT” (YALE UNIVERSITY, priority 2018, published 2021).

Tests used:
[1] = type: in vivo, C57BL/6J mice
Protocol: Germfree mice were colonized with the wildtype and mutant strains. BRV was administered.
Individually caged GF C57BL/6J mice are colonized by oral gavage with 200 μL of an overnight GMM culture of either B. thetaiotaomicron wild type or bt4554 strains to generate GN^WT or GN^MUT mice, respectively. After 4 days, bacterial loads are determined by CFU plating on BHI blood agar prior to drug treatment.
(§1) Each drug treatment is performed using 20 treated and 5 to 6 untreated animals. Both genders are equally represented in each group and evenly distributed across the different time points for sample collection. Animals (n=5 per time point and group) are given 100 mg/kg body weight of BRV or SRV as suspensions in PBS (200 μL PBS for controls) by oral gavage. One blood sample is collected from each animal at an early time point (0.5, 1, 1.5, or 2 hours after drug administration) by submandibular bleeding. At 3, 5, 7, and 9 h, mice are sacrificed and tissue samples are collected into sample tubes and snap-frozen. Fecal samples are collected before euthanization and re-suspended in PBS (1 mL) through vigorous shaking. 20 μL are then plated on BHI blood plates and incubated aerobically and anaerobically at 37° C. to check GF, GN^WT, and GN^MUT animals for contamination. Monocolonized mice are also checked for contamination by PCR using primers 7 and 8.

[2] = Physiologically based multi-compartment pharmacokinetic model; parameters: species or system mouse; conditions: GN^WT mice, oral BRV
Text: These quantitative measurements of drug and metabolite levels, collected over time, were used in various compartments, and in the presence and absence of microbial drug metabolism, to build the predictor module 130 which implements a physiologically based pharmacokinetic model to predict the levels and source of systemic drug and metabolite exposure over time, and quantify the contribution of host and microbiota to systemic drug and metabolite exposure. First, to parameterize processes independent from microbial BRV metabolism (grey compartments in FIG. 19A), a global optimization procedure was used to fit measured BRV and BVU kinetics in serum and intestinal compartments of GN^MUT mice. […]
Measured BRV and BVU kinetics in serum and intestinal compartments of GN^MUT mice were used to parameterize processes independent from bacterial BRV conversion (grey compartments as illustrated in FIG. 19A) using the global optimization procedure to best fit the measured data. […]
To parameterize processes dependent on microbial BRV metabolism (green compartments in FIG. 19A), including bacterial BRV to BVU conversion (kc^B) and BVU absorption rates from cecum and colon (KaLI1^M and kaLI2^M), measured BRV and BVU kinetics in cecum and colon (but not serum) of GN^WT mice, as illustrated in FIGS. 19C and 20A, are used. […]

[3] = Oral BRV in conventional (CV) and germfree (GF) mice, drug and metabolite levels; type: in vivo, C57BL/6 mice
Protocol: Oral BRV was administered to conventional (CV) and germfree (GF) C57BL/6 mice, and BRV and BVU concentrations were measured over time along the length of the gastrointestinal tract as shown in FIG. 4C. Serum kinetics of BRV and BVU in conventional (CV) and germ-free (GF) mice were compared following oral BRV administration.
All experiments using mice are performed using protocols approved by the Yale University Institutional Animal Care and Use Committee. Germfree (GF) 8 to 12 week old C57BL/6J mice are maintained in flexible plastic gnotobiotic isolators with a 12-hour light/dark cycle and GF status monitored by PCR and culture-based methods. Conventional C57BL/6J mice (Jackson Laboratories) are purchased at the age of 6-7 weeks and kept in the lab for 2-3 weeks before experiments. All mice are provided a standard, autoclaved mouse chow (5013 LabDiet, Purina) ad libitum.
as §1
200 μL of 0.1 mm zirconia/silica beads (BioSpec Products) and 500 μL of organic solvent (acetonitrile:methanol, 1:1) supplemented with internal standard are added to 50-350 mg of pre-weighed solid material. Material is homogenized by mechanical disruption with a bead beater (BioSpec Products) set for 2 minutes on high setting at room temperature. After incubation for at least 1 h at −20° C., samples are centrifuged (3220 rcf, −9° C.) for 15 min. 10 μL of supernatant are diluted with 10 μL H2O for analysis by LC-MS.
Samples for LS-MS analysis are prepared as described above. Chromatographic separation is performed on a C18 Kinetex Evo column (Phenomenex, 100 mm×2.1 mm, […]) using mobile phase A: H2O, 0.1% formic acid and B: methanol, 0.1% formic acid at 45° C. 5 μL of sample are injected at 100% A and 0.4 mL/min flow followed by a linear gradient to 95% B over 5.5 min and 0.4 mL/min flow leading to thymine, BVU, SRV, and BRV elution at 0.95, 2.0, 2.15, and 2.4 min, respectively. The internal standards caffeine and sulfamethoxazole elute at 1.9 and 2.1 min, respectively. The qTOF is operated in positive scanning mode (50-1000 m/z) and the following source parameters: VCap is 3500 V; nozzle voltage is 2000 V; gas temp is 225 C; drying gas 13 L/min; nebulizer is 20 psig; sheath gas temp is 225 C; and sheath gas flow is 12 L/min. Online mass calibration is performed using a second ionization source and a constant flow (5 μL/min) of reference solution (121.0509 and 922.0098 m/z). Compounds are identified based on the retention time of chemical standards and their accurate mass (tolerance 20 ppm).

O=c1[nH]cc(/C=C/Br)c(=O)[nH]1 [BVU, bromovinyluracil]
serum BVU levels ([1]; GN^WT compared to GN^MUT mice): significantly higher
absorption of BVU from cecum and colon ([1]; GN^WT mice): almost entirely absorbed
BVU levels in the liver ([1]; GN^WT mice after BRV administration): increased BVU levels
microbial share of total BVU exposure in serum (area under the curve) [2]: 77%
BVU concentrations in the liver ([3]; CV compared to GF mice, oral BRV): increased
BVU intestinal concentrations ([3]; CV mice compared to GF controls, oral BRV): increased intestinal concentrations
concentrations of BVU in serum ([3]; CV versus GF mice, later timepoints after oral BRV): significantly higher
